Test results published in patent US20230303565A1, “PESTICIDALLY ACTIVE HETEROCYCLIC DERIVATIVES WITH SULFUR CONTAINING SUBSTITUENTS” (SYNGENTA CROP PROTECTION AG, priority 2020, published 2023).

Columns and labels:
Assay type in all cases: in vivo
[1] = system: Myzus persicae (Green Peach Aphid); test: Activity against Myzus persicae (green peach aphid), feeding/contact activity, sunflower leaf discs; settings: foliar, 144 h, application rate of 200 ppm, aphid population of mixed ages, 6 days after infestation
Protocol: Example B5: Activity Against Myzus persicae (Green Peach Aphid) Feeding/Contact Activity
Sunflower leaf discs were placed onto agar in a 24-well microtiter plate and sprayed with aqueous test solutions prepared from 10′000 ppm DMSO stock solutions. After drying, the leaf discs were infested with an aphid population of mixed ages. The samples were assessed for mortality 6 days after infestation.

[2] = system: Carpocapsa (Cydia) Pomonella (Codling Moth); test: Activity against Carpocapsa (Cydia) pomonella (codling moth), larvicide, feeding/contact, diet cubes; settings: 336 h, application rate of 12.5 ppm, L1 larvae, 14 days after infestation, 26-27° C.
Protocol: Example B9: Activity Against Carpocapsa (Cydia) Pomonella (Codling Moth)) Larvicide, Feeding/Contact
Diet cubes coated with paraffin were sprayed with diluted test solutions in an application chamber. After drying off the treated cubes (10 replicates) were infested with 1 L1 larvae. Samples were incubated at 26-27° C. and checked 14 days after infestation for mortality and growth inhibition.

[3] = system: Diabrotica Balteata (Corn Root Worm); test: Activity against Diabrotica balteata (corn root worm), maize sprouts on agar; settings: 96 h, application rate of 200 ppm, L2 larvae, 4 days after infestation, in comparison to untreated samples, read-out: effect in at least one of the two categories (mortality or growth inhibition)
Protocol: Example B2: Activity Against Diabrotica Balteata (Corn Root Worm)
Maize sprouts placed onto an agar layer in 24-well microtiter plates were treated with aqueous test solutions prepared from 10′000 ppm DMSO stock solutions by spraying. After drying, the plates were infested with L2 larvae (6 to 10 per well). The samples were assessed for mortality and growth inhibition in comparison to untreated samples 4 days after infestation.

[4] = system: Bemisia tabaci (Cotton White Fly); test: Activity against Bemisia tabaci (cotton white fly), cotton leaf discs; settings: foliar, 144 h, application rate of 200 ppm, adult white flies, 6 days after incubation
Protocol: Example B8: Activity Against Bemisia tabaci (Cotton White Fly)
Cotton leaf discs were placed on agar in 24-well microtiter plates and sprayed with aqueous test solutions prepared from 10′000 ppm DMSO stock solutions. After drying the leaf discs were infested with adult white flies. The samples were checked for mortality 6 days after incubation.

[5] = system: Chilo suppressalis (Striped Rice Stemborer); test: Activity against Chilo suppressalis (striped rice stemborer), artificial diet in 24-well plates; settings: 144 h, application rate of 200 ppm, L2 larvae, 6 days after infestation, in comparison to untreated samples, read-out: control (at least one of mortality, anti-feedant effect, growth inhibition)
Protocol: Example B1: Activity Against Chilo suppressalis (Striped Rice Stemborer)
24-well microtiter plates with artificial diet were treated with aqueous test solutions prepared from 10′000 ppm DMSO stock solutions by pipetting. After drying, the plates were infested with L2 larvae (6-8 per well). The samples were assessed for mortality, anti-feeding effect, and growth inhibition in comparison to untreated samples 6 days after infestation. Control of Chilo suppressalis by a test sample is given when at least one of the categories mortality, anti-feedant effect, and growth inhibition is higher than the untreated sample.

[6] = system: Spodoptera littoralis (Egyptian Cotton Leaf Worm); test: Activity against Spodoptera littoralis (Egyptian cotton leaf worm), cotton leaf discs; settings: foliar, 72 h, application rate of 200 ppm, L1 larvae, 3 days after infestation, in comparison to untreated samples, read-out: control (at least one of mortality, anti-feedant effect, growth inhibition)
Protocol: Example B7: Activity Against Spodoptera littoralis (Egyptian Cotton Leaf Worm)
Cotton leaf discs were placed onto agar in 24-well microtiter plates and sprayed with aqueous test solutions prepared from 10′000 ppm DMSO stock solutions. After drying the leaf discs were infested with five L1 larvae. The samples were assessed for mortality, anti-feeding effect, and growth inhibition in comparison to untreated samples 3 days after infestation. Control of Spodoptera littoralis by a test sample is given when at least one of the categories mortality, anti-feedant effect, and growth inhibition is higher than the untreated sample.

[7] = system: Plutella xylostella (Diamond Back Moth); test: Activity against Plutella xylostella (diamond back moth), artificial diet in 24-well plates; settings: 192 h, application rate of 200 ppm, Plutella eggs, 8 days after infestation, in comparison to untreated samples, read-out: effect in at least one of the two categories (mortality or growth inhibition)
Protocol: Example B6: Activity Against Plutella xylostella (Diamond Back Moth)
24-well microtiter plates with artificial diet were treated with aqueous test solutions prepared from 10′000 ppm DMSO stock solutions by pipetting. After drying, Plutella eggs were pipetted through a plastic stencil onto a gel blotting paper and the plate was closed with it. The samples were assessed for mortality and growth inhibition in comparison to untreated samples 8 days after infestation.

[8] = system: Euschistus heros (Neotropical Brown Stink Bug); test: Activity against Euschistus heros (neotropical brown stink bug), soybean leaves on agar; settings: 120 h, application rate of 200 ppm, N2 nymphs, 5 days after infestation, in comparison to untreated samples, read-out: effect in at least one of the two categories (mortality or growth inhibition)
Protocol: Example B3: Activity Against Euschistus heros (Neotropical Brown Stink Bug)
Soybean leaves on agar in 24-well microtiter plates were sprayed with aqueous test solutions prepared from 10′000 ppm DMSO stock solutions. After drying the leaves were infested with N2 nymphs. The samples were assessed for mortality and growth inhibition in comparison to untreated samples 5 days after infestation.

[9] = system: Frankliniella occidentalis (Western Flower Thrips); test: Activity against Frankliniella occidentalis (western flower thrips), feeding/contact activity, sunflower leaf discs; settings: foliar, 168 h, application rate of 200 ppm, population of mixed ages, 7 days after infestation
Protocol: Example B4: Activity Against Frankliniella occidentalis (Western Flower Thrips) Feeding/Contact Activity
Sunflower leaf discs were placed on agar in 24-well microtiter plates and sprayed with aqueous test solutions prepared from […] stock solutions. After drying the leaf discs were infested with a Frankliniella population of mixed ages. The samples were assessed for mortality 7 days after infestation.

CCS(=O)(=O)c1c(N2Cc3ccc(C4(C#N)CC4)cc3C2=O)nc2ccc(C(C)(F)F)cn12 [P4, 1-[2-[6-(1,1-difluoroethyl)-3-ethylsulfonyl-imidazo[1,2-a]pyridin-2-yl]-3-oxo-isoindolin-5-yl]cyclopropanecarbonitrile]
≥ 80%: mortality at 200 ppm [1] | mortality at 12.5 ppm [2] | percent effect (mortality or growth inhibition) at 200 ppm [3] | mortality at 200 ppm [4] | percent control (mortality, anti-feedant effect or growth inhibition) at 200 ppm [5] | percent control (mortality, anti-feedant effect or growth inhibition) at 200 ppm [6] | percent effect (mortality or growth inhibition) at 200 ppm [7]

CCS(=O)(=O)c1c(N2Cc3ncc(C4(C#N)CC4)cc3C2=O)nc2ccc(C(F)(F)F)cn12 [P2, 1-[6-[3-ethylsulfonyl-6-(trifluoromethyl)imidazo[1,2-a]pyridin-2-yl]-5-oxo-7H-pyrrolo[3,4-b]pyridin-3-yl]cyclopropanecarbonitrile]
≥ 80%: mortality at 200 ppm [1] | mortality at 12.5 ppm [2] | percent effect (mortality or growth inhibition) at 200 ppm [3] | percent effect (mortality or growth inhibition) at 200 ppm [8] | percent control (mortality, anti-feedant effect or growth inhibition) at 200 ppm [5] | percent control (mortality, anti-feedant effect or growth inhibition) at 200 ppm [6] | percent effect (mortality or growth inhibition) at 200 ppm [7] | mortality at 200 ppm [9]

CCS(=O)(=O)c1c(N2Cc3ccc(C4(C#N)CC4)cc3C2=O)nc2ccc(C(F)(F)F)cn12 [P1, 1-[2-[3-ethylsulfonyl-6-(trifluoromethyl)imidazo[1,2-a]pyridin-2-yl]-3-oxo-isoindolin-5-yl]cyclopropanecarbonitrile]
≥ 80%: mortality at 200 ppm [1] | mortality at 12.5 ppm [2] | percent effect (mortality or growth inhibition) at 200 ppm [3] | percent effect (mortality or growth inhibition) at 200 ppm [8] | percent control (mortality, anti-feedant effect or growth inhibition) at 200 ppm [5] | percent control (mortality, anti-feedant effect or growth inhibition) at 200 ppm [6] | percent effect (mortality or growth inhibition) at 200 ppm [7] | mortality at 200 ppm [9]

CCS(=O)(=O)c1c(N2Cc3ccc(C4(C#N)CC4)cc3C2=O)nc2ccc(C3(C#N)CC3)cn12 [P6, 1-[2-[6-(1-cyanocyclopropyl)-3-ethylsulfonyl-imidazo[1,2-a]pyridin-2-yl]-3-oxo-isoindolin-5-yl]cyclopropanecarbonitrile]
≥ 80%: mortality at 200 ppm [1] | mortality at 12.5 ppm [2] | percent effect (mortality or growth inhibition) at 200 ppm [3] | mortality at 200 ppm [4] | percent control (mortality, anti-feedant effect or growth inhibition) at 200 ppm [5] | percent control (mortality, anti-feedant effect or growth inhibition) at 200 ppm [6] | percent effect (mortality or growth inhibition) at 200 ppm [7] | mortality at 200 ppm [9]

CCS(=O)(=O)c1c(N2Cc3ccc(OC(C)(C)C#N)cc3C2=O)nc2ccc(C(F)(F)F)cn12 [P9, 2-[2-[3-ethylsulfonyl-6-(trifluoromethyl)imidazo[1,2-a]pyridin-2-yl]-3-oxo-isoindolin-5-yl]oxy-2-methyl-propanenitrile]
≥ 80%: mortality at 200 ppm [1] | percent effect (mortality or growth inhibition) at 200 ppm [3] | mortality at 200 ppm [4] | percent control (mortality, anti-feedant effect or growth inhibition) at 200 ppm [5] | percent control (mortality, anti-feedant effect or growth inhibition) at 200 ppm [6] | percent effect (mortality or growth inhibition) at 200 ppm [7]
